Reference: patent publication US10590389B2, “Endodermal cell production method, liver cell production method, pancreatic cell production method, endodermal cell induction promoter, liver cell induction promoting kit, pancreatic cell induction promoting kit, and microfluidic device” (Kyoto University, priority 2014, dated 2020)

Key:
Format in all cases: cell-based
[1] = tested on: H9 cell line (human ES cell); test: Number of endodermal cells produced after induction; details: Example 2; seeding 5×10^4 to 2×10^5 cells/well; dispersed or clusters; 10 μmol/l Y27632; under any of these conditions
Protocol: Differentiation into endodermal cells was induced in the same manner as in Example 1, except that the H9 cell line was seeded at a cell density of 5×10^4 cells/well, 1×10^5 cells/well, or 2×10^5 cells/well. Also, differentiation into endodermal cells was induced in the same manner, except that, instead of the H9 cell line in the dispersed state, a H9 cell line forming cell clusters was seeded. Then, the endodermal cells obtained after the induction were collected. The endodermal cells obtained in (1) above were counted.

[2] = tested on: H9 cell line (human ES cell); test: CXCR4 expression in induced endodermal cells by flow cytometry; details: dispersed or cluster-forming H9 cells, 10 μmol/l Y27632, under any of these conditions
Protocol: On a 24-well dish (growth area: 1.9 cm^2/well, BD Falcon [trademark]), a H9 cell line (obtained from WiCell), which is a human ES cell, was seeded in a dispersed state at a cell density of 1×10^5 cells/well and cultured for 24 hours. The culture conditions were set as follows: 37° C. and 5% CO2. As a culture solution, mTeSR-1 (STEMCELL) containing 10 μmol/l Y27632 (ROCK activity inhibitory compound, Wako) and 100 ng/ml activin A (R&D Systems) was used. To the mTeSR-1A, a penicillin-streptomycin solution (Wako) had been added beforehand so that the mTeSR-1 contained 100 U/ml penicillin and 100 U/ml streptomycin. […] CXCR4 expression in the stained cells was measured using a flow cytometer (BD FACSCanto [trademark] II, BD Biosciences). CXCR4 expression was also measured in the same manner, except that, from culture day 1 to culture day 4, TeSR-E8 or CDM-PVA was used instead of the mTeSR-1. Further, CXCR4 expression was measured in the same manner, except that, instead of the H9 cell line in the dispersed state, the H9 cell line forming cell clusters was seeded on culture day 1. As a control, CXCR4 expression was measured in the same manner, except that an APC-labeled control antibody (clone name: G155-178, BD Pharmigen) was used instead of the anti-human CXCR4 antibody. […] CXCR4 expression in the thus-obtained endodermal cells was measured in the same manner as in (2) in Example 1. […]

[3] = tested on: H9 cell line (human ES cell); test: Endodermal cell induction from pluripotent cells with or without ROCK activity inhibitory compound (Example 8)
Protocol: On a 24-well dish (growth area: 1.9 cm^2/well, BD Falcon [trademark]), a H9 cell line (obtained from WiCell), which is a human ES cell, was seeded in a dispersed state at a cell density of 1×10^5 cells/well and cultured for 24 hours. The culture conditions were set as follows: 37° C. and 5% CO2. As a culture solution, mTeSR-1 (STEMCELL) containing 10 μmol/l Y27632 (ROCK activity inhibitory compound, Wako) and 100 ng/ml activin A (R&D Systems) was used. To the mTeSR-1A, a penicillin-streptomycin solution (Wako) had been added beforehand so that the mTeSR-1 contained 100 U/ml penicillin and 100 U/ml streptomycin. After the culture, the culture solution used on culture day 1 was removed, and a culture solution with the same composition was further added to each well. The cells were further cultured for one day under the above-described culture conditions. The culture solution used on culture day 2 was removed, and mTeSR-1 containing 10 μmol/l Y27632, 100 ng/ml activin A, 10 ng/ml BMP-4 (R&D Systems), 10 μmol/l LY294002 (PI3K activity inhibitory compound, CAYMAN CHEMICAL COMPANY), and 3 μmol/l CHIR99021 (GSK-3β activity inhibitory compound, STEMGENT) was added. Then, the cells were cultured for 24 hours under the above-described culture conditions. […]

C[C@@H](N)[C@H]1CC[C@H](C(=O)Nc2ccncc2)CC1 [Y27632]
number of the endodermal cells obtained after the induction relative to the number of cells of the H9 cell line at the start of the induction [1]: at least six
proportion of the cells positive to the endoderm cell marker CXCR4 ([2]; Example 1, after culture day 5, mTeSR-1, TeSR-E8 or CDM-PVA): ≥ 80.5%
proportion of the cells positive to the endoderm cell marker CXCR4 ([2]; Example 2, seeding 5×10^4, 1×10^5 or 2×10^5 cells/well): ≥ 83.7%
probability of induction ([3]; endodermal cell induction examined on culture day 5, 10 μmol/l Y27632 on culture days 1-4): 100%
Number of times endodermal cell induction was performed ([3]; successful inductions / total inductions, examined on culture day 5, 10 μmol/l Y27632 on culture days 1-4 with activin A, BMP-4, LY294002, CHIR99021): 20/20
